The values that follow come from US12226424B2, “Target protein degradation compounds, their anti-tumor use, their intermediates and use of intermediates” (ShanghaiTech University, priority 2018, dated 2025).

SMILES strings stand for the structures.

For experiment [1], the target named is T1, ALK protein (Homo sapiens, UniProt Q9UM73). Description: Western-blot half degradation concentration (DC50) of ALK protein in SR cells. The format is cell-based. The following applies: 24 h drug treatment; for DC50: read-out: DC50 (nM)/ SR cell line. As to the method:
(§1) ALK-positive SR cells (human large cell immunoblastic lymphoma) were purchased from the American Type Culture Collection (ATCC); H3122 cells (human non-small cell lung cancer) were from the Shanghai University of Science and Technology Lin Haifan's research group.
(§2) The cells used in this present disclosure were cultured in a 37° C. incubator containing 5% CO2.
(§3) DC50 (drug concentration corresponding to protein degradation to 50%) calculation: according to the gray value of the corresponding Western blotting band after drug treatment, fitting the relationship curve between drug concentration and gray value to calculate the drug concentration range corresponding to half of the gray value.
Target sequence in this assay (Q9UM73 with tags, fused parts or gaps): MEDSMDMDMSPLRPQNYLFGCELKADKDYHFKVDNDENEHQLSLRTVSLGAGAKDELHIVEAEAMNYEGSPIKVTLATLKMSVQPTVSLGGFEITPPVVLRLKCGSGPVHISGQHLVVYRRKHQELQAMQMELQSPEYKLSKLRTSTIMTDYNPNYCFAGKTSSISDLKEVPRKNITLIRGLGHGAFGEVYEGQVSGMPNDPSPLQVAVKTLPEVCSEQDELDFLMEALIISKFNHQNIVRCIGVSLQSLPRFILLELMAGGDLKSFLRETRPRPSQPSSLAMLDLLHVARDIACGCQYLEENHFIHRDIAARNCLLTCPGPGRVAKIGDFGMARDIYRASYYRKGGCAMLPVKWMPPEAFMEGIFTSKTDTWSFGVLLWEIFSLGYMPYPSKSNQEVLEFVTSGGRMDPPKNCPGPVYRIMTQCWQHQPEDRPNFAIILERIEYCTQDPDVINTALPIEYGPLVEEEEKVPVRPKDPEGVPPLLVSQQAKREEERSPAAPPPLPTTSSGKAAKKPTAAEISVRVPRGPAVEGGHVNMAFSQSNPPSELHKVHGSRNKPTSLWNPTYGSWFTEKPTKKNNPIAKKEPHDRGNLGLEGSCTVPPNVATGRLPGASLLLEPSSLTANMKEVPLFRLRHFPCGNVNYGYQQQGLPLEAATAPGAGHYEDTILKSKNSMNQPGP

Experiment [2] deals with T1, ALK protein. Description: Western-blot half degradation concentration (DC50) of ALK protein in H3122 cells. It counts as cell-based. The following applies: 24 h drug treatment, read-out: DC50 (nM)/ H3122 cell line. How it is done:
as §1, §2, §3
Target sequence in this assay (Q9UM73 with tags, fused parts or gaps): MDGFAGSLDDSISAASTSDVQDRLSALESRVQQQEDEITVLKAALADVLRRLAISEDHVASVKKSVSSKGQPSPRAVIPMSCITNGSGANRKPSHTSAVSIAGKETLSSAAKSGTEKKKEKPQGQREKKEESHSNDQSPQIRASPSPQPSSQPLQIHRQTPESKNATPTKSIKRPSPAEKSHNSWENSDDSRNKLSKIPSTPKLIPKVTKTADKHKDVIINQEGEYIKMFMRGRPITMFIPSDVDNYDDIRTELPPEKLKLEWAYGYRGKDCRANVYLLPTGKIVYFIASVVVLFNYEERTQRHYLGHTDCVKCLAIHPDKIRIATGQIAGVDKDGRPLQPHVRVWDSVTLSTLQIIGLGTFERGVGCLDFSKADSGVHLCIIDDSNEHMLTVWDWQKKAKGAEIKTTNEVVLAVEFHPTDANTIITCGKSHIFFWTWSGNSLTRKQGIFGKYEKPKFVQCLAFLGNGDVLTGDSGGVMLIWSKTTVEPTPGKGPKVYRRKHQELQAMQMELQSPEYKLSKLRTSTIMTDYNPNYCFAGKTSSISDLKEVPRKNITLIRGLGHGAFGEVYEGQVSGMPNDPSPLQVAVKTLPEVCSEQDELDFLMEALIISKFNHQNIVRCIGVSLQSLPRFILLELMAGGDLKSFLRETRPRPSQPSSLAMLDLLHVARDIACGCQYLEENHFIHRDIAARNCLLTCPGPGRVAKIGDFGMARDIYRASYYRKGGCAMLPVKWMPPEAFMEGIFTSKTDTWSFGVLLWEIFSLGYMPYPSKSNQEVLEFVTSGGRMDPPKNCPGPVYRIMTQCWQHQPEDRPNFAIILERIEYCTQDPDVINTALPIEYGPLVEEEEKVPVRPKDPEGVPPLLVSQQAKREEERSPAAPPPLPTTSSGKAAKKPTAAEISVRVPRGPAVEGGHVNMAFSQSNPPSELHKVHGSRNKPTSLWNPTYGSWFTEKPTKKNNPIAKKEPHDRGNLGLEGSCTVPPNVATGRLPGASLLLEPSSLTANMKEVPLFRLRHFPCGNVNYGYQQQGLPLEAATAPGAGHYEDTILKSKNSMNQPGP

Another experiment relates to SR cells. Nature of the experiment: Half inhibitory concentration (IC50) on ALK-positive SR cell proliferation (CCK-8). The following applies: Homo sapiens; SR cells, 72 h drug treatment, CCK-8; read-out: IC50 (nM)/ SR cell line. The format is cell-based. The method in brief:
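SR cells seeded at 10,000 cells/well in RPMI1640 and treated with PROTAD compounds at 10 concentrations (top 10 μM, 5-fold dilutions) for 72 h at 37° C, 5% CO2. Viability read by CCK-8 (2 h) at OD450; DMSO as negative control.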

For experiment [3], the system named is K562 cells (BCR-ABL positive). Description: Half inhibitory concentration (IC50) on tumor cells, CCK-8, K562. The following applies: Homo sapiens, K562, 48 h, read-out: IC50 (nM)/K562 cell line.
Method: Determination of Half Inhibitory Concentration (IC50) of PROTAD Compounds on Tumor Cells
K562 cells were seeded in 100 μL of RPMI1640 complete medium at a density of 20,000 cells/well. 100 μL of the inoculated cells were treated with 100 μL diluted PROTAD compound of the present disclosure to be tested at 9 successively decreasing concentrations (starting at the highest concentration of 10 μM; 3-fold serial dilutions). After the cells were treated with the tested drugs for 48 hours, the cell viability determination was performed in accordance with CCK-8 reagent operating instructions. The negative control was DMSO, and positive control was a commercial inhibitor. After CCK-8 treatment for 2 h, the value of O.D.450 was measured using a microplate reader.
In another experiment the target is BCR-ABL (Homo sapiens, UniProt P00519). Description: Western-blot half-degradation concentration (DC50) / degradation of BCR-ABL in K562 cells. Conditions: read-out: DC50 (nM)/K562 cell line, BCR-ABL protein degradation, 24 hours, Western-blot.
Sequence of BCR-ABL (P00519 with tags, fused parts or gaps): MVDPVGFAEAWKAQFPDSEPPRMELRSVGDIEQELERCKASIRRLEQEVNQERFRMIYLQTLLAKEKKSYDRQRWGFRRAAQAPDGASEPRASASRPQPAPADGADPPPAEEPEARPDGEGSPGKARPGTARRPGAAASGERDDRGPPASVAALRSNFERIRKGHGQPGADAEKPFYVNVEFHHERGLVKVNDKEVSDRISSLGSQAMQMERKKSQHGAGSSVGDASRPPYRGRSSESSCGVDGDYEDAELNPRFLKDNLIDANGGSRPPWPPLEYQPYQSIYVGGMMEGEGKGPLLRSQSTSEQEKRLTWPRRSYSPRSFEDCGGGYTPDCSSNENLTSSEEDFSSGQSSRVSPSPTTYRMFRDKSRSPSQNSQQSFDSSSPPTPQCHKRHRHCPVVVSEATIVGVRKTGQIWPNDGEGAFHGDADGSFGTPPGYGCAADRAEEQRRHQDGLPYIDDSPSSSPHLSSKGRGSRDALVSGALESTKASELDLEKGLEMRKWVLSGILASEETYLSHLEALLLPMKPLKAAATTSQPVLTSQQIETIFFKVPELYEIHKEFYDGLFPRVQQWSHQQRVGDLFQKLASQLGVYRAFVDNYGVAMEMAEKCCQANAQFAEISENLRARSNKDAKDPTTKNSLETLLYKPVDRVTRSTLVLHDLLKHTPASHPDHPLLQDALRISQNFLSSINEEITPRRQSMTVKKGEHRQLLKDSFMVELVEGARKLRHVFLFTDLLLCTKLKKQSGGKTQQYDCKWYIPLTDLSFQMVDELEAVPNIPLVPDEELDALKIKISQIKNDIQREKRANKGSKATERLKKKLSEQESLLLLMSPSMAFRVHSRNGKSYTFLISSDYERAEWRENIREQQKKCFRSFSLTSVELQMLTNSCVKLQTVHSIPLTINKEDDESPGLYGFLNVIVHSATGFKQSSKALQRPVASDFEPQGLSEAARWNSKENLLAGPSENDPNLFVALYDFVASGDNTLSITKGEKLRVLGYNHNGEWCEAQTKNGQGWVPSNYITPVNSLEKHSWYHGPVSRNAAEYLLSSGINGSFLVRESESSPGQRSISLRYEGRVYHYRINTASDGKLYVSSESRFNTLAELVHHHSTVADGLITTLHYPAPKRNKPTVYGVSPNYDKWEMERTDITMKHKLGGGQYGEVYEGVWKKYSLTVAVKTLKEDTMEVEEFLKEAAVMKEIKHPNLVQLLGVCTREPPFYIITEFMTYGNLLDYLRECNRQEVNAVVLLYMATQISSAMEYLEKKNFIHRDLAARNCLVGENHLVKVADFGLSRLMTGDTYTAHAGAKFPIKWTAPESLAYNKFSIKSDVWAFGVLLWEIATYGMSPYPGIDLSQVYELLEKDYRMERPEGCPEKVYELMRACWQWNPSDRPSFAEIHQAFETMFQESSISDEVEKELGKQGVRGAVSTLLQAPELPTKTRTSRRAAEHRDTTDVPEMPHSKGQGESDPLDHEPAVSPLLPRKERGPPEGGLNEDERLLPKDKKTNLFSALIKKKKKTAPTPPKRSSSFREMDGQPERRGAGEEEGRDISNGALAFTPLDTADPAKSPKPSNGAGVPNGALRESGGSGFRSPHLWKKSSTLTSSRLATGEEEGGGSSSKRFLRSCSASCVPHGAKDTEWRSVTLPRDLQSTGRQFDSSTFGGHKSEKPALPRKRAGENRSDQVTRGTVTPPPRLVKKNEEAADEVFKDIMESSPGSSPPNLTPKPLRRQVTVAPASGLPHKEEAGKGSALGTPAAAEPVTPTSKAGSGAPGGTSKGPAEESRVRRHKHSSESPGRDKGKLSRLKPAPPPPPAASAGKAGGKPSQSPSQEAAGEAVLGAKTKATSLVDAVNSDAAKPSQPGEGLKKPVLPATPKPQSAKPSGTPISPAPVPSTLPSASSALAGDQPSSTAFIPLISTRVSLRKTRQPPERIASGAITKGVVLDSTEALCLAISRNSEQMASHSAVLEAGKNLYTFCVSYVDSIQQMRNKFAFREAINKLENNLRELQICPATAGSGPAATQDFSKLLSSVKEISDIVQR

Regarding `COc1cc(N2CCC(N3CCN(C(=O)CSc4cccc5c4C(=O)N(C4CCC(=O)NC4=O)C5=O)CC3)CC2)ccc1Nc1ncc(Cl)c(Nc2ccccc2P(C)(C)=O)n1` (stereo not drawn) [SIAIS164062, 4-((2-(4-(1-(4-((5-chloro-4-((2-(dimethylphosphoryl)phenyl)amino)pyrimidin-2-yl)amino)-3-methoxyphenyl)piperidin-4-yl)piperazin-1-yl)-2-oxoethyl)thio)-2-(2,6-dioxopiperidin-3-yl)isoindoline-1,3-dione], the results for the DC50 on ALK protein [1] and on ALK protein [2] were 6 nM and 13 nM, respectively. Besides, the IC50 with SR cells stood at 11.6 ± 6.2 nM.

Turning to `COc1cc(N2CCC(N3CCN(C(=O)CCSc4cccc5c4C(=O)N(C4CCC(=O)NC4=O)C5=O)CC3)CC2)ccc1Nc1ncc(Cl)c(Nc2ccccc2P(C)(C)=O)n1` (stereo not drawn) [SIAIS164063, 4-((3-(4-(1-(4-((5-chloro-4-((2-(dimethylphosphoryl)phenyl)amino)pyrimidin-2-yl)amino)-3-methoxyphenyl)piperidin-4-yl)piperazin-1-yl)-3-oxopropyl)thio)-2-(2,6-dioxopiperidin-3-yl)isoindoline-1,3-dione], the DC50 at ALK protein [1] and at ALK protein [2] was 500 nM each time. In the experiment with SR cells, the IC50 is 15.7 ± 9.8 nM.

Consider `COc1cc(N2CCC(N3CCN(C(=O)CCCSc4cccc5c4C(=O)N(C4CCC(=O)NC4=O)C5=O)CC3)CC2)ccc1Nc1ncc(Cl)c(Nc2ccccc2P(C)(C)=O)n1` (stereo not drawn) [SIAIS164064, 4-((4-(4-(1-(4-((5-chloro-4-((2-(dimethylphosphoryl)phenyl)amino)pyrimidin-2-yl)amino)-3-methoxyphenyl)piperidin-4-yl)piperazin-1-yl)-4-oxobutyl)thio)-2-(2,6-dioxopiperidin-3-yl)isoindoline-1,3-dione], for which the DC50 at ALK protein [1] is 1.1 nM; at ALK protein [2], 49 nM. In addition, the IC50 in the experiment on SR cells was 4.4 ± 2.5 nM.

Consider `COc1cc(N2CCC(N3CCN(C(=O)CCCCCSc4cccc5c4C(=O)N(C4CCC(=O)NC4=O)C5=O)CC3)CC2)ccc1Nc1ncc(Cl)c(Nc2ccccc2P(C)(C)=O)n1` (stereo not drawn) [SIAIS164065, 4-((6-(4-(1-(4-((5-chloro-4-((2-(dimethylphosphoryl)phenyl)amino)pyrimidin-2-yl)amino)-3-methoxyphenyl)piperidin-4-yl)piperazin-1-yl)-6-oxohexyl)thio)-2-(2,6-dioxopiperidin-3-yl)isoindoline-1,3-dione], for which the DC50 on ALK protein [1] stood at 5.2 nM; on ALK protein [2], 173 nM. Besides, the IC50 with SR cells stood at 2.9 ± 2.7 nM.

`Cc1nc(Nc2ncc(C(=O)Nc3c(C)cccc3Cl)s2)cc(N2CCN(CCSc3cccc4c3CN(C3CCC(=O)NC3=O)C4=O)CC2)n1` (stereo not drawn) [SIAIS171166, N-(2-chloro-6-methylphenyl)-2-((6-(4-(2-((2-(2,6-dioxopiperidin-3-yl)-1-oxoisoindolin-4-yl)thio)ethyl)piperazin-1-yl)-2-methylpyrimidin-4-yl)amino)thiazole-5-carboxamide]: the IC50 in experiment [3] came to 0.51 nM. In addition, on BCR-ABL, the DC50 is less than 1 nM.

Take `Cc1nc(Nc2ncc(C(=O)Nc3c(C)cccc3Cl)s2)cc(N2CCN(CCCSc3cccc4c3C(=O)N(C3CCC(=O)NC3=O)C4=O)CC2)n1` (stereo not drawn) [SIAIS172106, N-(2-chloro-6-methylphenyl)-2-((6-(4-(3-((2-(2,6-dioxopiperidin-3-yl)-1,3-dioxoisoindolin-4-yl)thio)propyl)piperazin-1-yl)-2-methylpyrimidin-4-yl)amino)thiazole-5-carboxamide]: the IC50 in experiment [3] turned out to be 0.83 nM. Besides, the DC50 on BCR-ABL was less than 3 nM.

As for `COc1cc(N2CCC(N3CCN(C(=O)CSc4cccc5c4CN(C4CCC(=O)NC4=O)C5=O)CC3)CC2)ccc1Nc1ncc(Cl)c(Nc2ccccc2P(C)(C)=O)n1` (stereo not drawn) [SIAIS219067, 3-(4-((2-(4-(1-(4-((5-chloro-4-((2-(dimethylphosphoryl)phenyl)amino)pyrimidin-2-yl)amino)-3-methoxyphenyl)piperidin-4-yl)piperazin-1-yl)-2-oxoethyl)thio)-1-oxoisoindolin-2-yl)piperidine-2,6-dione], at ALK protein [1], the DC50 was in the range of 0.1 to 10 nM. Besides, in the experiment with SR cells, the IC50 amounted to 2.4 ± 1.4 nM.

In the case of `COc1cc(N2CCC(N3CCN(C(=O)CCSc4cccc5c4CN(C4CCC(=O)NC4=O)C5=O)CC3)CC2)ccc1Nc1ncc(Cl)c(Nc2ccccc2P(C)(C)=O)n1` (stereo not drawn) [SIAIS219068, 3-(4-((3-(4-(1-(4-((5-chloro-4-((2-(dimethylphosphoryl)phenyl)amino)pyrimidin-2-yl)amino)-3-methoxyphenyl)piperidin-4-yl)piperazin-1-yl)-3-oxopropyl)thio)-1-oxoisoindolin-2-yl)piperidine-2,6-dione], the DC50 on ALK protein [1] lay within 1 to 10 nM. In the experiment with SR cells, the IC50 was found to be 1.7 ± 0.8 nM.

Regarding `COc1cc(N2CCC(N3CCN(C(=O)CCCSc4cccc5c4CN(C4CCC(=O)NC4=O)C5=O)CC3)CC2)ccc1Nc1ncc(Cl)c(Nc2ccccc2P(C)(C)=O)n1` (stereo not drawn) [SIAIS219069, 3-(4-((4-(4-(1-(4-((5-chloro-4-((2-(dimethylphosphoryl)phenyl)amino)pyrimidin-2-yl)amino)-3-methoxyphenyl)piperidin-4-yl)piperazin-1-yl)-4-oxobutyl)thio)-1-oxoisoindolin-2-yl)piperidine-2,6-dione], the DC50 at ALK protein [1] lay in the range of 0.1 to 10 nM. In the experiment on SR cells, the IC50 stood at 0.7 ± 0.3 nM.

Consider `COc1cc(N2CCC(N3CCN(C(=O)CCCCSc4cccc5c4CN(C4CCC(=O)NC4=O)C5=O)CC3)CC2)ccc1Nc1ncc(Cl)c(Nc2ccccc2P(C)(C)=O)n1` (stereo not drawn) [SIAIS219070, 3-(4-((5-(4-(1-(4-((5-chloro-4-((2-(dimethylphosphoryl)phenyl)amino)pyrimidin-2-yl)amino)-3-methoxyphenyl)piperidin-4-yl)piperazin-1-yl)-5-oxopentyl)thio)-1-oxoisoindolin-2-yl)piperidine-2,6-dione], for which the DC50 at ALK protein [1] fell in the range of 0.1 to 10 nM. For the same compound, the IC50 with SR cells is 0.5 ± 0.3 nM.

`COc1cc(N2CCC(N3CCN(C(=O)CCCCCSc4cccc5c4CN(C4CCC(=O)NC4=O)C5=O)CC3)CC2)ccc1Nc1ncc(Cl)c(Nc2ccccc2P(C)(C)=O)n1` (stereo not drawn) [SIAIS219071, 3-(4-((6-(4-(1-(4-((5-chloro-4-((2-(dimethylphosphoryl)phenyl)amino)pyrimidin-2-yl)amino)-3-methoxyphenyl)piperidin-4-yl)piperazin-1-yl)-6-oxohexyl)thio)-1-oxoisoindolin-2-yl)piperidine-2,6-dione]: on ALK protein [1], the “DC50 (nM)/ SR cell line” value is given as 0.01~10 nM. Further, the IC50 with SR cells stood at 0.6 ± 0.4 nM.

As for `COc1cc(N2CCC(N3CCN(C(=O)CCCCCCSc4cccc5c4CN(C4CCC(=O)NC4=O)C5=O)CC3)CC2)ccc1Nc1ncc(Cl)c(Nc2ccccc2P(C)(C)=O)n1` (stereo not drawn) [SIAIS219072, 3-(4-((7-(4-(1-(4-((5-chloro-4-((2-(dimethylphosphoryl)phenyl)amino)pyrimidin-2-yl)amino)-3-methoxyphenyl)piperidin-4-yl)piperazin-1-yl)-7-oxoheptyl)thio)-1-oxoisoindolin-2-yl)piperidine-2,6-dione], on ALK protein [1], the DC50 fell in the range of 0.1 to 10 nM. Also, the IC50 in the experiment on SR cells turned out to be 0.8 ± 0.5 nM.

Consider `COc1cc(N2CCC(N3CCN(CCCCCCSc4cccc5c4CN(C4CCC(=O)NC4=O)C5=O)CC3)CC2)ccc1Nc1ncc(Cl)c(Nc2ccccc2P(C)(C)=O)n1` (stereo not drawn) [SIAIS219098, 3-(4-((6-(4-(1-(4-((5-chloro-4-((2-(dimethylphosphoryl)phenyl)amino)pyrimidin-2-yl)amino)-3-methoxyphenyl)piperidin-4-yl)piperazin-1-yl)hexyl)thio)-1-oxoisoindolin-2-yl)piperidine-2,6-dione], for which the DC50 on ALK protein [1] is 0.1 to 1 nM. The IC50 in the experiment with SR cells was found to be 0.7 ± 0.2 nM.
